“And” between values parts separate entries of the source, which are not always exact repeats. Identical values can stand only once. Marks after values point to notes of the source that are not given here.
Columns and labels:
cats = type: in vivo; conditions: anesthetized cats; single i.v.; 100 mg/kg (title)
rats [1] = assay: Training ability of immature under-trained rats in the CRPA test; type: in vivo; conditions: for LP1 (training) / LP2 (at 24 h) / ΔLP: under-trained rats 30-35 days
Description: In studying immature animals, it must be considered that to generate CRPA it is required, as was established, to apply higher educational incentives (0.6 mA, 8 pulses vs 5 pulses at 0.45 mA in adult rats) with re-training (after 48 hours). Development of amnesia also requires a higher dose of scopolamine (1.3 mg/kg) in rat pups. […] Phenotropil has not only a psychomodulatory (Ψ-modulatory) activity but also a Ψ-operandmodulatory activity given that the mnemotropic effect is associated with the expression of specific proteins and genes involved in memory, attention and learning.

mice [2] = assay: Benzedrine-induced stimulation of orientation-locomotor activity; type: in vivo
From the text: In regard to influencing the effects of Benzedrine, Phenotropil also can provide, depending on the dose, the diametrically opposite activity when in combination with psychostimulants. This fact must be taken into account in combined use of various pharmacological agents.

rats [3] = assay: Forced swimming with freely rotating wheels by Nomura; type: in vivo; conditions: rat pups
Description: The antidepressant effect of Phenotropil was studied in adult rats (185-218 g) and rat pups of 28-35 days of age (85-110 g). The test drugs were injected intraperitoneally in the first case and intragastrically in the second case 40 min before the tests. The methods of behavioral despair during forced swimming (Porsolt et al., 1978) and forced swimming with freely rotating wheels (Nomura et al., 1982) were used.
In the study of depression by Porsolt, no significant differences between the effective doses were found (Table 10), while according to the method of Nomura this difference is statistically significant. At a dose of 100 mg/kg, the efficacy of Phenotropil as compared to the control, was 59.0%. At a dose of 200 mg/kg it was +30.0% in comparison with the control group (Table 10.1). […] The effect of Phenotropil was investigated by the method of Nomura also in mature outbred rats (185-218 g).

MDA (malondialdehyde) = assay: Plasma TBA-MDA under negative stress (Ns, Ds); type: in vivo, rats; conditions: for km % vs experimental control (saline): Ds seven days + 200 mg/kg, listed as Phenotropil
HSP32 = HSP32 level in brain structures (Western blot); type: in vivo; conditions: Wistar rats, no Ns
HSP70 = HSP70 expression in the myocardium (Western blot); type: in vivo, rats; conditions: for increase of NSP70 level in the myocardium vs Ns control: negative stress state; for increase of NSP70 content in the heart vs untreated control: no stress; for HSP 70 in myocardium: Wistar rats
From the text: Determination of NSP70 (ng/mg of total protein) was studied in myocardial preparations by Western blot analysis; the results are presented in Table 14.1.

mice [4] = assay: Fertility of female mice aged 510 days; type: in vivo
Description: Investigation of the effect of Phenotropil on the fertility of mice was performed in the spring period in females aged 510 days (30 animals per group). Termination of the reproductive age was established by placing every three females to a fertile male. Mating was determined by the presence of vaginal plugs. Females not mated during one month were included in the study. Throughout the entire study period (32 days), Phenotropil was administered one time per day intragastrically to the experimental group in a dose of 100 mg/kg with distilled water; the control animals received distilled water. On the eighth day of the experiment, the females were introduced to males in the following combination: two experimental and one control animal or […]. The procedure was repeated for females not covered at each stage. The same fertile males were not used for mating.

women = assay: Migraine attacks, intranasal drops; type: in vivo, human
Description: Table 27 presents the results of studies in women (22-35 years) diagnosed with migraine without aura (simple migraine)—5 subjects, and migraine with aura (classic migraine)—5 subjects. Phenotropil as used as nasal drops (0.1% sterile solution), 10 drops three times a day for 7 days for the purpose of relief and prevention of migraine attacks at onset of prodromal phenomena and aura episodes. 5 drops of the solution were administered into each nostril. One drop of the 0.1% standard solution contained 0.05 mg of Phenotropil.

[5] = mice, Benzedrine 3 mg/kg + Phenotropil 50.0 mg/kg
[6] = mice, Benzedrine 3 mg/kg + Phenotropil 100.0 mg/kg
[7] = mice, Benzedrine 3 mg/kg + Phenotropil 300.0 mg/kg
[8] = mice, doses of 50 and 100 mg/kg (so in the source)
[9] = August rats, single Ns-exposure + 200 mg/kg
[10] = Wistar rats, single Ns-exposure + 200 mg/kg
[11] = 100 mg/kg i.g. daily, by the morning of day 9
[12] = 0.1% nasal drops, 10 drops three times a day 7 days
[13] = migraine attacks, humans, intranasally 0.5 mg × 3 times per day

NC(=O)CN1CC(c2ccccc2)CC1=O (racemic) [Compound 1, (RS)-2-(2-oxo-4-phenylpyrrolidine-1-yl)acetamide]
CCA blood flow (1-2 min) vs background (cats): +26.0%
SBP (1-2 min) vs background (cats): −24.0%
SBP (at 4 min) vs background (cats): +14%
VPR (at 5 min) vs background (cats): −46.0%
mnemotropic effect by ΔLP index versus saline treated control (rats [1]; 50 mg/kg): +133%
mnemotropic effect by ΔLP index versus saline treated control (rats [1]; 100 mg/kg): +504%
mnemotropic effect by ΔLP index versus saline treated control (rats [1]; 300 mg/kg): +696%
LP1 (training) (rats [1]; intragastric 50 mg/kg): 7.2 ± 2.1
LP2 (at 24 h) (rats [1]; intragastric 50 mg/kg): 18.4 ± 4.6
ΔLP (rats [1]; intragastric 50 mg/kg): 11.2 ± 3.4
LP1 (training) (rats [1]; intragastric 100 mg/kg): 7.2 ± 2.1
LP2 (at 24 h) (rats [1]; intragastric 100 mg/kg): 36.2 ± 4.6
ΔLP (rats [1]; intragastric 100 mg/kg): 29.0 ± 3.4
LP1 (training) (rats [1]; intragastric 300 mg/kg): 6.8 ± 1.2^
LP2 (at 24 h) (rats [1]; intragastric 300 mg/kg): 45.0 ± 7.5
ΔLP (rats [1]; intragastric 300 mg/kg): 38.2 ± 4.4
Number of pulses for 3 min. (mice [2]; [5]): 126.0 ± 12.4
Number of stand-ups for 3 min. (mice [2]; [5]): 15.9 ± 2.0
Number of pulses for 3 min. (mice [2]; [6]): 129.2 ± 14.2
Number of stand-ups for 3 min. (mice [2]; [6]): 24.2 ± 4.8
Number of pulses for 3 min. (mice [2]; [7]): 48.1 ± 9.4
Number of stand-ups for 3 min. (mice [2]; [7]): 12.1 ± 4.6
increase of orientation and exploratory behavior, horizontal component, vs control (mice [2]; [8]): 240.0%
increase of orientation and exploratory behavior, vertical component, vs control (mice [2]; [8]): 89.0%
reduction of psychostimulant effect of Benzedrine, horizontal component (mice [2]; single 300 mg/kg): ~42.9%
reduction of psychostimulant effect of Benzedrine, vertical component (mice [2]; single 300 mg/kg): 14.8%
Number of revolutions (rats [3]; 100 mg/kg): 175.4 ± 22.98
Number of revolutions (rats [3]; 200 mg/kg): 143.4 ± 33.14
Optical density of the samples vs control (MDA (malondialdehyde); August rats, 200 mg/kg single, no Ns): +188.4 * %
km % vs outbred group (MDA (malondialdehyde); August rats, 200 mg/kg, normal conditions): 0%
increase of plasma MDA concentration vs baseline control (MDA (malondialdehyde); August rats, exposure to Ns): 2.2 times
plasma MDA higher than with Phenotropil without Ns (MDA (malondialdehyde); August rats, exposure to Ns): 17.0%
MDA content vs control (MDA (malondialdehyde); [9]): +223.0 * %
Optical density of the samples vs control (MDA (malondialdehyde); [9]): +220.3 * %
km % vs outbred group (MDA (malondialdehyde); August rats, three-time Ns + 200 mg/kg): +27.8% *
Optical density of the samples vs control (MDA (malondialdehyde); Wistar rats, 200 mg/kg single, no Ns): +66.5 * %
km % vs outbred group (MDA (malondialdehyde); Wistar rats, 200 mg/kg, normal conditions): 0%
km % vs experimental control (saline) (MDA (malondialdehyde); Wistar rats, 200 mg/kg): −65.6% and −65.6 *** %
reduction of MDA level vs baseline control without stress (MDA (malondialdehyde); Wistar rats, exposure to Ns): 6.0%
MDA content vs control (MDA (malondialdehyde); [10]): −6.0 * %
Optical density of the samples vs control (MDA (malondialdehyde); [10]): −6.0 * %
km % vs outbred group (MDA (malondialdehyde); Wistar rats, three-time Ns + 200 mg/kg): −33.3% *
km % vs experimental control (saline) (MDA (malondialdehyde); outbred rats, 200 mg/kg): −73.0% and −73.0 *** %
increase of species reserve of stability (intra-species Kt) in acute Ns-state (MDA (malondialdehyde); rats, during treatment): 12.5%
activation in August relative to Wistar strain (MDA (malondialdehyde); single injection, no stress): 2.9 times
HSP32 Total vs outbred control (HSP32; 200 mg/kg single): +68.8 * %
decrease of gene expression (heat shock protein) (HSP32; tested dose): 17.7%
increase of NSP70 level in the myocardium vs Ns control (HSP70; 25 mg/kg): 38%
increase of NSP70 content in the heart vs untreated control (HSP70; 25 mg/kg): 65%
increase of NSP70 level in the myocardium vs Ns control (HSP70; 50 mg/kg): 41.4%
increase of NSP70 content in the heart vs untreated control (HSP70; 50 mg/kg): 82%
increase of NSP70 level in the myocardium vs Ns control (HSP70; 100 mg/kg): 62%
increase of NSP70 content in the heart vs untreated control (HSP70; 100 mg/kg): 73%
increase of NSP70 level in the myocardium vs Ns control (HSP70; 300 mg/kg): 89.7%
increase of NSP70 content in the heart vs untreated control (HSP70; 300 mg/kg): 273%
HSP 70 in myocardium (HSP70; 25 mg/kg i.p., normal conditions): 0.18 ± 0.011 ng/mg total protein
HSP 70 in myocardium (HSP70; 50 mg/kg i.p., normal conditions): 0.20 ± 0.014 ng/mg total protein
HSP 70 in myocardium (HSP70; 100 mg/kg i.p., normal conditions): 0.19 ± 0.008 ng/mg total protein
HSP 70 in myocardium (HSP70; 300 mg/kg i.p., normal conditions): 0.41 ± 0.016 ng/mg total protein
HSP 70 in myocardium (HSP70; Ns + 25 mg/kg i.p.): 0.40 ± 0.02 ng/mg total protein
HSP 70 in myocardium (HSP70; Ns + 50 mg/kg i.p.): 0.41 ± 0.03 ng/mg total protein
HSP 70 in myocardium (HSP70; Ns + 100 mg/kg i.p.): 0.47 ± 0.02 ng/mg total protein
HSP 70 in myocardium (HSP70; Ns + 300 mg/kg i.p.): 0.55 ± 0.03 ng/mg total protein
females left uncovered (of 30) (mice [4]; 100 mg/kg i.g. daily, after 32 days): 6
females covered (of 30) (mice [4]; [11]): 9
females covered, % of the total number in the group (mice [4]; [11]): 30.0%
females covered (of 30) (mice [4]; 100 mg/kg i.g. daily, by the morning of day 17): 11
females covered (of 30) (mice [4]; 100 mg/kg i.g. daily, by the morning of day 25): 4
Fertility (% of animals in the group) (mice [4]; mice, 100 mg/kg): 80.0 * %
patients (of 10) with headaches and their duration decreased significantly (women; [12]): 3
patients (of 10) with no effect (women; [12]): 2
patients (of 10) with prodrome and aura completely stopped without headache attacks (women; [12]): 5
Efficacy: % of subjects with no effect (women; [13]): 20%
Efficacy: % of subjects with partial effect (women; [13]): 30%
Efficacy: subjects with 100% efficacy (women; [13]): 5/10 - 100% efficacy ^
Efficacy: subjects with no effect (women; [13]): 2/10
Efficacy: subjects with partial effect (women; [13]): 3/10

— patent publication US20140315972A1, “RS)-2-(2-oxo-4-phenylpyrrolidin-1-yl)acetamide compound having modulatory activity with a commensurate effect, pharmaceutical substance (variants) and its application, composition (variants) thereof” (priority 2011, published 2014)
